Assay results from ChEMBL document CHEMBL4665629, “An optimised series of substituted N-phenylpyrrolamides as DNA gyrase B inhibitors” (Eur J Med Chem, 2019).
Values after ≈ are worked out from the molar mass of the structure shown.

How the values were obtained:
[1] = molecular target: Topoisomerase IV (Staphylococcus aureus) (UniProt P0C1U9+P0C1S7); test: Inhibition of Staphylococcus aureus DNA topoisomerase 4 assessed as residual activity at 1 uM using biotinylated oligonucleotide as substrate incubated for 30 mins in presence of ATP by fluorescence-based microplate reader assay relative to control; format: protein-complex assay
Pseudomonas aeruginosa [2] = test: Antibacterial activity against Pseudomonas aeruginosa ATCC 27853 assessed as bacterial growth inhibition at 50 uM incubated for 24 hrs by CLSI protocol based broth microdilution assay relative to control; format: functional
Klebsiella pneumoniae [3] = test: Antibacterial activity against wild type Klebsiella pneumoniae ATCC 10031 harboring GyrA S83Y mutant assessed as minimum inhibitory concentration required for >=90% inhibition of bacterial growth in presence of 10 ug/ml phenylalanine-arginine beta-naphthamide; format: functional
Escherichia coli [4] = test: Antibacterial activity against Escherichia coli MG1655 assessed as minimum inhibitory concentration required for >=90% inhibition of bacterial growth in presence of phenylalanine-arginine beta-naphthylamide by CLSI protocol based broth microdilution assay; format: functional
Enterococcus faecium [5] = test: Antibacterial activity against vancomycin-resistant Enterococcus faecium ATCC 700221 assessed as minimum inhibitory concentration required for >=90% inhibition of bacterial growth by CLSI protocol based broth microdilution assay; format: functional
Escherichia coli [6] = test: Antibacterial activity against Escherichia coli ATCC 25922 assessed as minimum inhibitory concentration required for >=90% inhibition of bacterial growth by CLSI protocol based broth microdilution assay; format: functional
Salmonella enterica = test: Antibacterial activity against Salmonella enterica LT2 assessed as minimum inhibitory concentration required for >=90% inhibition of bacterial growth in presence of phenylalanine-arginine beta-naphthylamide by CLSI protocol based broth microdilution assay; format: functional
DNA gyrase [7] = molecular target: T1, DNA gyrase (Escherichia coli, UniProt P0AES4+P0AES6); test: Inhibition of Escherichia coli DNA gyrase assessed as conversion of NADH to NAD+ by ATPase assay; format: protein-complex assay
Escherichia coli [8] = test: Antibacterial activity against wild type Escherichia coli MG1655 assessed as minimum inhibitory concentration required for >=90% inhibition of bacterial growth in presence of 50 ug/ml phenylalanine-arginine beta-naphthylamide; format: functional
Klebsiella pneumoniae [9] = test: Antibacterial activity against wild type Klebsiella pneumoniae ATCC 10031 harboring GyrA S83F/D87G mutant assessed as minimum inhibitory concentration required for >=90% inhibition of bacterial growth in presence of 10 ug/ml phenylalanine-arginine beta-naphthamide; format: functional
Enterococcus faecium [10] = test: Antibacterial activity against Enterococcus faecium ATCC 35667 assessed as minimum inhibitory concentration required for >=90% inhibition of bacterial growth by CLSI protocol based broth microdilution assay; format: functional
Staphylococcus aureus [11] = test: Antibacterial activity against methicillin-resistant and vancomycin-intermediate Staphylococcus aureus ATCC 700699 assessed as minimum inhibitory concentration required for >=90% inhibition of bacterial growth by CLSI protocol based broth microdilution assay; format: functional
Klebsiella pneumoniae [12] = test: Antibacterial activity against wild type Klebsiella pneumoniae ATCC 10031 harboring GyrA S83F/D87G and ParC S80I/E84G mutants assessed as minimum inhibitory concentration required for >=90% inhibition of bacterial growth in presence of 10 ug/ml phenylalanine-arginine beta-naphthamide; format: functional
Escherichia coli [13] = test: Antibacterial activity against Escherichia coli MG1655 harboring […]/D87N and ParC S80I/E84G mutants assessed as minimum inhibitory concentration required for >=90% inhibition of bacterial growth in presence of 50 ug/ml phenylalanine-arginine beta-naphthylamide; format: functional
Escherichia coli [14] = test: Antibacterial activity against Escherichia coli ATCC 25922 assessed as bacterial growth inhibition at 50 uM incubated for 24 hrs by CLSI protocol based broth microdilution assay relative to control; format: functional
Escherichia coli [15] = test: Antibacterial activity against Escherichia coli ATCC 25922 assessed as minimum inhibitory concentration required for >=90% inhibition of bacterial growth in presence of phenylalanine-arginine beta-naphthylamide by CLSI protocol based broth microdilution assay; format: functional
Escherichia coli [16] = test: Antibacterial activity against Escherichia coli MG1655 harboring […]/D87N mutant assessed as minimum inhibitory concentration required for >=90% inhibition of bacterial growth in presence of 50 ug/ml phenylalanine-arginine beta-naphthylamide; format: functional
Staphylococcus aureus [17] = test: Antibacterial activity against Staphylococcus aureus ATCC 29213 assessed as minimum inhibitory concentration required for >=90% inhibition of bacterial growth by CLSI protocol based broth microdilution assay; format: functional
Enterococcus faecium [18] = test: Antibacterial activity against Enterococcus faecium ATCC 35667 assessed as bacterial growth inhibition at 50 uM incubated for 24 hrs by CLSI protocol based broth microdilution assay relative to control; format: functional
[19] = molecular target: DNA gyrase (Staphylococcus aureus) (UniProt P0A0K8+P20831); test: Inhibition of Staphylococcus aureus DNA gyrase assessed as residual activity at 1 uM using biotinylated oligonucleotide as substrate incubated for 30 mins in presence of ATP by fluorescence-based microplate reader assay relative to control; format: protein-complex assay
Chain of DNA gyrase (Staphylococcus aureus) (P0A0K8 2-644 limits assumed): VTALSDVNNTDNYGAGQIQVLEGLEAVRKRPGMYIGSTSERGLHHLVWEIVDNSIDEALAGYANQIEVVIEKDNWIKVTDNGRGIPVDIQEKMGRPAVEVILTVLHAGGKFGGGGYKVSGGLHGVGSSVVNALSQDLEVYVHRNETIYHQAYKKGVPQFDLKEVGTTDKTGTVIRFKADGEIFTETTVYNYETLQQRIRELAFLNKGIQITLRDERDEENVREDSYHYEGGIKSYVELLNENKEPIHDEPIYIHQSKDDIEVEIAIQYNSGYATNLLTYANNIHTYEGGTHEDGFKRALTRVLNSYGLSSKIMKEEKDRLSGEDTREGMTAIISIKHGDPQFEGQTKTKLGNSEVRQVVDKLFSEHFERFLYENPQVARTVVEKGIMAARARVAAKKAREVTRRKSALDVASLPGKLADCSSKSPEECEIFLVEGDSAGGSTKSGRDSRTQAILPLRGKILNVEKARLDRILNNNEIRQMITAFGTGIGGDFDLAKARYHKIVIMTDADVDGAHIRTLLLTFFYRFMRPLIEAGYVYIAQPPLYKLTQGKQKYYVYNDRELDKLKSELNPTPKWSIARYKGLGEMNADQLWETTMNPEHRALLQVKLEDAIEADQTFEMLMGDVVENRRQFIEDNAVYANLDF
Chain of DNA gyrase (Staphylococcus aureus) (P20831 whole entry partner): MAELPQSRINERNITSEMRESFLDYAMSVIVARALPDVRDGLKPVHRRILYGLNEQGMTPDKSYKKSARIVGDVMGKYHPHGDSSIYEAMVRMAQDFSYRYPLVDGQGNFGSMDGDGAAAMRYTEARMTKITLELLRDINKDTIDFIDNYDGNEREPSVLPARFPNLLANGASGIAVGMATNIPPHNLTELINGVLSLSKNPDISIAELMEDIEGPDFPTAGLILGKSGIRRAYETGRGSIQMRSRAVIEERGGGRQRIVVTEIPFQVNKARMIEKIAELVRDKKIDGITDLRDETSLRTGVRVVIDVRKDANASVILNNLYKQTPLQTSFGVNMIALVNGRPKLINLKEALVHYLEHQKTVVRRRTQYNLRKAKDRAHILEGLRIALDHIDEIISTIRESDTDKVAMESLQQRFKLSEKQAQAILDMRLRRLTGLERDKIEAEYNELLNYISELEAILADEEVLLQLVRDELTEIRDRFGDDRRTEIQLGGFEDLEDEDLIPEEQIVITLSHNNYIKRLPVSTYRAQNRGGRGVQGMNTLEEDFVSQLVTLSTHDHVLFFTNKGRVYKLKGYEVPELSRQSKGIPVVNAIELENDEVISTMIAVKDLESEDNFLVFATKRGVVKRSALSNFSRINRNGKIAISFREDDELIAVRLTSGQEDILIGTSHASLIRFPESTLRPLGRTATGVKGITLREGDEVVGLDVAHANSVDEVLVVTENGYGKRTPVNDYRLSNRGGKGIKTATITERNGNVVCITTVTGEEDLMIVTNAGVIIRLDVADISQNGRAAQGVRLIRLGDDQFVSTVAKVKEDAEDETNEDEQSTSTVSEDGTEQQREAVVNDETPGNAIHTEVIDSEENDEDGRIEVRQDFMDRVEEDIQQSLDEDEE

Escherichia coli [20] = test: Antibacterial activity against efflux pump d effect ive Escherichia coli JW5503 harbouring tolC mutant assessed as bacterial growth inhibition at 50 uM incubated for 24 hrs by CLSI protocol based broth microdilution assay relative to control; format: functional
Staphylococcus aureus [21] = test: Antibacterial activity against Staphylococcus aureus ATCC 29213 assessed as bacterial growth inhibition at 50 uM incubated for 24 hrs by CLSI protocol based broth microdilution assay relative to control; format: functional
Pseudomonas aeruginosa [22] = test: Antibacterial activity against Pseudomonas aeruginosa ATCC 27853 assessed as minimum inhibitory concentration required for >=90% inhibition of bacterial growth in presence of phenylalanine-arginine beta-naphthylamide by CLSI protocol based broth microdilution assay; format: functional
Staphylococcus aureus [23] = test: Antibacterial activity against methicillin-resistant Staphylococcus aureus ATCC 43300 assessed as minimum inhibitory concentration required for >=90% inhibition of bacterial growth by CLSI protocol based broth microdilution assay; format: functional
Klebsiella pneumoniae [24] = test: Antibacterial activity against wild type Klebsiella pneumoniae ATCC 10031 harboring GyrA S83L mutant assessed as minimum inhibitory concentration required for >=90% inhibition of bacterial growth in presence of 10 ug/ml phenylalanine-arginine beta-naphthamide; format: functional
DNA gyrase [25] = molecular target: T1, DNA gyrase; test: Inhibition of Escherichia coli DNA gyrase using biotinylated oligonucleotide as substrate incubated for 30 mins in presence of ATP by fluorescence-based microplate reader assay; format: protein-complex assay
Escherichia coli [26] = test: Antibacterial activity against Escherichia coli MG1655 harboring […] mutant assessed as minimum inhibitory concentration required for >=90% inhibition of bacterial growth in presence of 50 ug/ml phenylalanine-arginine beta-naphthylamide; format: functional
Enterococcus faecalis = test: Antibacterial activity against Enterococcus faecalis ATCC 29212 assessed as bacterial growth inhibition at 50 uM incubated for 24 hrs by CLSI protocol based broth microdilution assay relative to control; format: functional
Escherichia coli [27] = test: Antibacterial activity against outer membrane impaired Escherichia coli JD17464 harboring lpxC mutant assessed as bacterial growth inhibition at 50 uM incubated for 24 hrs by CLSI protocol based broth microdilution assay relative to control; format: functional
[28] = Inhibition of Escherichia coli DNA topoisomerase 4 assessed as residual activity at 1 uM using biotinylated oligonucleotide as substrate incubated for 30 mins in presence of ATP by fluorescence-based microplate reader assay relative to control

CCn1cc(C(=O)O)c(=O)c2ccc(NC(=O)c3[nH]c(C)c(Cl)c3Cl)cc21
Activity [1]: 100% | inhibition at 50 µM (Pseudomonas aeruginosa [2]): -5% | MIC (Klebsiella pneumoniae [3]): 1.2 µM | MIC (Escherichia coli [4]): 2.5 µM | MIC (Enterococcus faecium [5]): 0.72 µM (≈ 0.294 µg/mL) | MIC (Escherichia coli [6]): > 32 µM | MIC (Salmonella enterica): > 32 µM | IC50 (DNA gyrase [7]): 1 µM | MIC (Escherichia coli [8]): 2.5 µM | MIC (Klebsiella pneumoniae [9]): 2.5 µM | MIC (Enterococcus faecium [10]): 1.56 µM (≈ 0.637 µg/mL) | MIC (Staphylococcus aureus [11]): 2.5 µM (≈ 1.02 µg/mL) | MIC (Klebsiella pneumoniae [12]): 1.2 µM | MIC (Escherichia coli [13]): 2.5 µM | inhibition at 50 µM (Escherichia coli [14]): 11% | MIC (Escherichia coli [15]): 2.3 µM | MIC (Escherichia coli [16]): 2.5 µM | MIC (Staphylococcus aureus [17]): 0.78 µM (≈ 0.318 µg/mL) | inhibition at 50 µM (Enterococcus faecium [18]): 97% | Activity [19]: 90% | inhibition at 50 µM (Escherichia coli [20]): 54% | inhibition at 50 µM (Staphylococcus aureus [21]): 100% | MIC (Pseudomonas aeruginosa [22]): > 32 µM | MIC (Staphylococcus aureus [23]): 2.5 µM (≈ 1.02 µg/mL) | MIC (Klebsiella pneumoniae [24]): 1.2 µM | IC50 (DNA gyrase [25]): 1.4 µM | MIC (Escherichia coli [26]): 2.5 µM | inhibition at 50 µM (Enterococcus faecalis): 99% | inhibition at 50 µM (Escherichia coli [27]): 11% | Activity [28]: 92%
